Laboratory results published in patent US7282519B2 (priority 2003, dated 2007).
Where two headings read alike, the source gives them in different places.

Columns and labels:
Normal Rat [1] = assay: Measurement of urine excretion using a nitrosated diuretic compound, intravenous; format: in vivo, Male Wistar rats; conditions: for Total Urine Volume (ml) at: 0.5 h / Total Urine Volume (ml) at: 1 h / Total Urine Volume (ml) at: 2 h: normal rat, intravenous slow bolus, 3 mg/kg (Example 12: 3 mg/kg equivalent), n = 6
Normal Rat [2] = format: in vivo, Male Wistar rats; conditions: intravenous slow bolus, 1 mg/kg (each compound), n = 3

| melting point | Compound | further results |
| --- | --- | --- |
| 135 °C | NS(=O)(=O)c1cc(C(=O)OCC(=O)NCCO[N+](=O)[O-])c(NCc2ccco2)cc1Cl | – |
| 125 to 138 °C (dec.) | C[C@@H](CNC(=O)COC(=O)c1cc(S(N)(=O)=O)c(Cl)cc1NCc1ccco1)O[N+](=O)[O-] | – |
| 51 to 61 °C | NS(=O)(=O)c1cc(C(=O)NCCOC(=O)[C@@H]2CCCN2[15N]=O)c(NCc2ccco2)cc1Cl | – |
| 79 to 81 °C | NS(=O)(=O)c1cc(C(=O)OC[C@H]2CCCN2N=O)c(NCc2ccco2)cc1Cl | – |
| 70 to 72 °C | CN(CCO[N+](=O)[O-])C(=O)COC(=O)c1cc(S(N)(=O)=O)c(Cl)cc1NCc1ccco1 | – |
| 115 to 117 °C | NS(=O)(=O)c1cc(C(=O)OCC(=O)N2CCC(CO[N+](=O)[O-])CC2)c(NCc2ccco2)cc1Cl | – |
| 170 °C | NS(=O)(=O)c1cc(C(=O)OCC(=O)N2CCC(CCO[N+](=O)[O-])CC2)c(NCc2ccco2)cc1Cl | – |
| 60 to 62 °C | CCN(CCO[N+](=O)[O-])C(=O)COC(=O)c1cc(S(N)(=O)=O)c(Cl)cc1NCc1ccco1 | – |
| 115 to 118 °C | NS(=O)(=O)c1cc(C(=O)OCC(=O)N[C@@H](CCO[N+](=O)[O-])CO[N+](=O)[O-])c(NCc2ccco2)cc1Cl | – |
| 64 to 66 °C | NS(=O)(=O)c1cc(C(=O)OCC(=O)N2CCC[C@@H]2CO[N+](=O)[O-])c(NCc2ccco2)cc1Cl | – |
| – | NS(=O)(=O)c1cc(C(=O)O)c(NCc2ccco2)cc1Cl [Furosemide, furosemide, reference compound] | Total Urine Volume (ml) at: 0.5 h (Normal Rat [1]): 6.7 ± 1.2 mL; Total Urine Volume (ml) at: 1 h (Normal Rat [1]): 8.8 ± 1.2 mL; Total Urine Volume (ml) at: 2 h (Normal Rat [1]): 11.0 ± 1.3 mL; Total Urine Volume (ml) at: 1 h (Normal Rat [2]; 1 h, mean ± spread): 3.3 ± 1.7 mL; Total Urine Volume (ml) at: 2 h (Normal Rat [2]; 2 h): 3.3 ± 1.7 mL; Total Urine Volume (ml) at: 3 h (Normal Rat [2]; 3 h): 5.0 ± 0.6 mL |

| Compound | melting point | further results |
| --- | --- | --- |
| NS(=O)(=O)c1cc(C(=O)OCC(=O)NC[C@H](CO[N+](=O)[O-])O[N+](=O)[O-])c(NCc2ccco2)cc1Cl [Example 12, (N-((2R)-2,3-Bis(nitrooxy)propyl)carbamoyl)methyl4-chloro-2-((2-furylmethyl)amino)-5-sulfamoylbenzoate] | 143 to 153 °C (dec.) | Total Urine Volume (ml) at: 0.5 h (Normal Rat [1]): 4.2 ± 0.4 mL; Total Urine Volume (ml) at: 1 h (Normal Rat [1]): 5.3 ± 0.5 mL; Total Urine Volume (ml) at: 2 h (Normal Rat [1]): 6.2 ± 0.5 mL; Diuresis in the rat (Normal Rat [1]; rat, intravenous, 3 mg/kg equivalent): elicits diuresis |
